# Results published in patent US7781591B2, “Substituted 3-cyanopyridines as protein kinase inhibitors” (Wyeth LLC, priority 2006, dated 2010).
# Biological target: T1, purified recombinant full length PKC theta (Panvera, P2996) (Homo sapiens, UniProt Q04759)
# T1 construct: purified recombinant full length PKC theta (Panvera, P2996); purchased Panvera P2996
# Test: Radioactive kinase assay for inhibition of full length (FL) PKCθ
# Assay type: biochemical
# Details: average value
# Method: This assay is based on the phosphorylation of a biotinylated substrate by a kinase utilizing radiolabeled ATP (ATP γ P33). The substrate was a biotinylated peptide with a sequence of biotin-[…]-C(O)NH2. […] The assay buffer was composed of 100 mM Hepes, pH7.5, 2 mM MgCl2, 20 mM β-glycerophosphate and 0.008% TritonX 100. A reaction mixture of ATP, ATP γ P33 (PerkinElmer), DTT, and the enzyme was prepared in the assay buffer and added to a 96-well polypropylene plate. The compound (diluted in DMSO in a separate 96-well polypropylene plate) was added to the reaction mixture and incubated at room temperature. Following the incubation, the peptide substrate was added to the reaction mixture to initiate the enzymatic reaction. The reaction was terminated with the addition of a stop solution (100 mM EDTA, 0.2% TritonX100, and 20 mM NaHPO4) and transferred from the assay plate to a washed streptavidin-coated 96-well scintiplate (PerkinElmer). […] Counts were recorded for each well as corrected counts per minute (CCPM). The counts were considered corrected because they were adjusted according to a P33 normalization protocol, which corrects for efficiency and background differences between the instrument detectors (software version 4.40.01).
# A Radioactive Kinase Assay for Inhibition of Full Length (FL) PKCθ Inhibitors
# This assay differs from what was described above in that the enzyme used was purified recombinant full length PKC theta (Panvera, P2996).
# T1 sequence (Q04759 whole entry): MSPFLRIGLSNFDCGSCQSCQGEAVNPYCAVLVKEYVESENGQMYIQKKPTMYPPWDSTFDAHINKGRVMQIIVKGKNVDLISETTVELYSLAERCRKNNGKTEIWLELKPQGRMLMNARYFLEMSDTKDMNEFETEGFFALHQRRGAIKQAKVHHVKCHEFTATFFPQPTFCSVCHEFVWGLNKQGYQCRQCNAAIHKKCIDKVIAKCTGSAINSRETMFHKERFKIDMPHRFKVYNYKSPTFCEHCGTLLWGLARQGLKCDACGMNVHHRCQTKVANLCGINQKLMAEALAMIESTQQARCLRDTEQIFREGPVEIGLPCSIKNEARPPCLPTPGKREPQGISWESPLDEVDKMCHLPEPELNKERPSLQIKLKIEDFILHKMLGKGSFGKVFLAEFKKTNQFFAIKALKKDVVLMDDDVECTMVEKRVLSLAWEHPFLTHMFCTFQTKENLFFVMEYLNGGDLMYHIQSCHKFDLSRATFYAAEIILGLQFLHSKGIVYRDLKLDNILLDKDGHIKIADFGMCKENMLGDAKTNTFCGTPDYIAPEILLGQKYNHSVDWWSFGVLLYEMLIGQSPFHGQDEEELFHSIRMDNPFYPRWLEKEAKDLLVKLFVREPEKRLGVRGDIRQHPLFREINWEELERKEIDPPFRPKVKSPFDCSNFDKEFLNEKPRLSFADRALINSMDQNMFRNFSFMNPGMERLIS
row,IC50,Compound
1,120 nM,"CC(=O)Nc1ccc(-c2cccc(-c3cncc(C#N)c3Nc3ccc4[nH]ccc4c3)c2)cc1 [Compound 120, N-{3′-[5-cyano-4-(1H-indol-5-ylamino)pyridin-3-yl]biphenyl-4-yl}acetamide]"
2,60 nM,"N#Cc1cncc(-c2cccc(-c3ccccc3Cl)c2)c1Nc1ccc2[nH]ccc2c1 [Compound 129, 5-(2′-chlorobiphenyl-3-yl)-4-(1H-indol-5-ylamino)nicotinonitrile]"
3,80 nM,"N#Cc1cncc(-c2cccc(-c3cccc(Cl)c3)c2)c1Nc1ccc2[nH]ccc2c1 [Compound 130, 5-(3′-chlorobiphenyl-3-yl)-4-(1H-indol-5-ylamino)nicotinonitrile]"
4,50 nM,"N#Cc1cncc(-c2cccc(-c3ccc(Cl)cc3)c2)c1Nc1ccc2[nH]ccc2c1 [Compound 131, 5-(4′-chlorobiphenyl-3-yl)-4-(1H-indol-5-ylamino)nicotinonitrile]"
5,100 nM,"N#Cc1cncc(-c2cccc(-c3ncccn3)c2)c1Nc1ccc2[nH]ccc2c1 [Compound 138, 4-(1H-indol-5-ylamino)-5-(3-pyrimidin-2-ylphenyl)nicotinonitrile]"
6,910 nM,"N#Cc1cncc(-c2ccccc2-c2ccccc2Cl)c1Nc1ccc2[nH]ccc2c1 [Compound 143, 5-(2′-chlorobiphenyl-2-yl)-4-(1H-indol-5-ylamino)nicotinonitrile]"
7,910 nM,"N#Cc1cncc(-c2ccccc2-c2cccc(Cl)c2)c1Nc1ccc2[nH]ccc2c1 [Compound 144, 5-(3′-chlorobiphenyl-2-yl)-4-(1H-indol-5-ylamino)nicotinonitrile]"
8,1920 nM,"N#Cc1cncc(-c2ccccc2-c2ccc(Cl)cc2)c1Nc1ccc2[nH]ccc2c1 [Compound 145, 5-(4′-chlorobiphenyl-2-yl)-4-(1H-indol-5-ylamino)nicotinonitrile]"
9,1330 nM,"N#Cc1cncc(-c2ccccc2-c2ccsc2)c1Nc1ccc2[nH]ccc2c1 [Compound 146, 4-(1H-indol-5-ylamino)-5-[2-(3-thienyl)phenyl]nicotinonitrile]"
10,1940 nM,"CC(=O)Nc1cccc(-c2cncc(C#N)c2Nc2ccc3[nH]ccc3c2)c1 [Compound 152, N-{3-[5-cyano-4-(1H-indol-5-ylamino)pyridin-3-yl]phenyl}acetamide]"
11,40 nM,"COCCOc1cc(-c2cncc(C#N)c2Nc2cccc3[nH]ccc23)ccc1OC [Compound 153, 4-(1H-indol-4-ylamino)-5-[4-methoxy-3-(2-methoxyethoxy)phenyl]nicotinonitrile]"
12,360 nM,"COCCOc1cc(-c2cncc(C#N)c2Nc2ccc3[nH]ccc3c2)ccc1OC [Compound 154, 4-(1H-indol-5-ylamino)-5-[4-methoxy-3-(2-methoxyethoxy)phenyl]nicotinonitrile]"
13,7800 nM,"COCCOc1cc(-c2cncc(C#N)c2Nc2ccc3cc[nH]c3c2)ccc1OC [Compound 155, 4-(1H-indol-6-ylamino)-5-[4-methoxy-3-(2-methoxyethoxy)phenyl]nicotinonitrile]"
14,> 20000 nM,"COCCOc1cc(-c2cncc(C#N)c2Nc2ccc3ncsc3c2)ccc1OC [Compound 156, 4-(1,3-benzothiazol-6-ylamino)-5-[4-methoxy-3-(2-methoxyethoxy)phenyl]nicotinonitrile]"
15,550 nM,"COCCOc1cc(-c2cncc(C#N)c2Nc2ccc3[nH]c(C)cc3c2)ccc1OC [Compound 157, 5-[4-methoxy-3-(2-methoxyethoxy)phenyl]-4-[(2-methyl-1H-indol-5-yl)amino]nicotinonitrile]"
16,37400 nM,"COCCOc1cc(-c2cncc(C#N)c2Nc2ccc3[nH]nnc3c2)ccc1OC [Compound 158, 4-(1H-1,2,3-benzotriazol-5-ylamino)-5-[4-methoxy-3-(2-methoxyethoxy)phenyl]nicotinonitrile]"
17,60 nM,"COCCOc1ccc(-c2cncc(C#N)c2Nc2cccc3[nH]ccc23)cc1OC [Compound 159, 4-(1H-indol-4-ylamino)-5-[3-methoxy-4-(2-methoxyethoxy)phenyl]nicotinonitrile]"
18,140 nM,"COCCOc1ccc(-c2cncc(C#N)c2Nc2ccc3[nH]ccc3c2)cc1OC [Compound 160, 4-(1H-indol-5-ylamino)-5-[3-methoxy-4-(2-methoxyethoxy)phenyl]nicotinonitrile]"

row,IC50,Compound
1,5500 nM,"COCCOc1ccc(-c2cncc(C#N)c2Nc2ccc3cc[nH]c3c2)cc1OC [Compound 161, 4-(1H-indol-6-ylamino)-5-[3-methoxy-4-(2-methoxyethoxy)phenyl]nicotinonitrile]"
2,15000 nM,"COCCOc1ccc(-c2cncc(C#N)c2Nc2ccc3ncsc3c2)cc1OC [Compound 162, 4-(1,3-benzothiazol-6-ylamino)-5-[3-methoxy-4-(2-methoxyethoxy)phenyl]nicotinonitrile]"
3,320 nM,"COCCOc1ccc(-c2cncc(C#N)c2Nc2ccc3[nH]c(C)cc3c2)cc1OC [Compound 163, 5-[3-methoxy-4-(2-methoxyethoxy)phenyl]-4-[(2-methyl-1H-indol-5-yl)amino]nicotinonitrile]"
4,20 nM,"N#Cc1cncc(-c2cccc(OCCCl)c2)c1Nc1cccc2[nH]ccc12 [Compound 165, 5-[3-(2-chloroethoxy)phenyl]-4-(1H-indol-4-ylamino)nicotinonitrile]"
5,3830 nM,"N#Cc1cncc(-c2cccc(OCCCl)c2)c1Nc1ccc2cc[nH]c2c1 [Compound 166, 5-[3-(2-chloroethoxy)phenyl]-4-(1H-indol-6-ylamino)nicotinonitrile]"
6,110 nM,"N#Cc1cncc(-c2cccc(OCCCl)c2)c1Nc1ccc2[nH]ccc2c1 [Compound 167, 5-[3-(2-chloroethoxy)phenyl]-4-(1H-indol-5-ylamino)nicotinonitrile]"
7,30 nM,"N#Cc1cncc(-c2cccc(OCCN3CCCC3)c2)c1Nc1cccc2[nH]ccc12 [Compound 169, 4-(1H-indol-4-ylamino)-5-[3-(2-pyrrolidin-1-ylethoxy)phenyl]nicotinonitrile]"
8,20 nM,"N#Cc1cncc(-c2cccc(OCCN3CCOCC3)c2)c1Nc1cccc2[nH]ccc12 [Compound 170, 4-(1H-indol-4-ylamino)-5-[3-(2-morpholin-4-ylethoxy)phenyl]nicotinonitrile]"
9,2590 nM,"N#Cc1cncc(-c2cccc(OCCN3CCCC3)c2)c1Nc1ccc2cc[nH]c2c1 [Compound 172, 4-(1H-indol-6-ylamino)-5-[3-(2-pyrrolidin-1-ylethoxy)phenyl]nicotinonitrile]"
10,2630 nM,"N#Cc1cncc(-c2cccc(OCCN3CCOCC3)c2)c1Nc1ccc2cc[nH]c2c1 [Compound 173, 4-(1H-indol-6-ylamino)-5-[3-(2-morpholin-4-ylethoxy)phenyl]nicotinonitrile]"
11,70 nM,"N#Cc1cncc(-c2cccc(OCCN3CCCC3)c2)c1Nc1ccc2[nH]ccc2c1 [Compound 174, 4-(1H-indol-5-ylamino)-5-[3-(2-pyrrolidin-1-ylethoxy)phenyl]nicotinonitrile]"
12,100 nM,"N#Cc1cncc(-c2cccc(OCCN3CCOCC3)c2)c1Nc1ccc2[nH]ccc2c1 [Compound 175, 4-(1H-indol-5-ylamino)-5-[3-(2-morpholin-4-ylethoxy)phenyl]nicotinonitrile]"
13,50 nM,"N#Cc1cncc(-c2cccc(OCc3ccccc3)c2)c1Nc1ccc2[nH]ccc2c1 [Compound 194, 5-[3-(benzyloxy)phenyl]-4-(1H-indol-5-ylamino)nicotinonitrile]"
14,190 nM,"N#Cc1cncc(-c2cccc(-c3ccc(C(=O)NCc4ccccc4)cc3)c2)c1Nc1ccc2[nH]ccc2c1 [Compound 204, N-benzyl-3′-[5-cyano-4-(1H-indol-5-ylamino)pyridin-3-yl]biphenyl-4-carboxamide]"
15,1140 nM,"N#Cc1cncc(-c2cccc(-c3ccc(C(=O)N4CCOCC4)cc3)c2)c1Nc1ccc2[nH]ccc2c1 [Compound 206, 4-(1H-indol-5-ylamino)-5-[4′-(morpholin-4-ylcarbonyl)biphenyl-3-yl]nicotinonitrile]"
16,530 nM,"CN1CCN(C(=O)c2ccc(-c3cccc(-c4cncc(C#N)c4Nc4ccc5[nH]ccc5c4)c3)cc2)CC1 [Compound 207, 4-(1H-indol-5-ylamino)-5-{4′-[(4-methylpiperazin-1-yl)carbonyl]biphenyl-3-yl}nicotinonitrile]"
17,360 nM,"COc1ccc(-c2cncc(C#N)c2Nc2cc(C)c3[nH]ccc3c2)cc1OC [Compound 217, 5-(3,4-dimethoxyphenyl)-4-[(7-methyl-1H-indol-5-yl)amino]nicotinonitrile]"
18,> 20000 nM,"COc1ccc(-c2cncc(C#N)c2Oc2ccc3[nH]ccc3c2)cc1OC [Compound 220, 5-(3,4-dimethoxyphenyl)-4-(1H-indol-5-yloxy)nicotinonitrile]"

# Biological target: T2, human PKCθ full length enzyme (Homo sapiens, UniProt Q04759)
# T2 construct: human PKCθ full length enzyme (Panvera Cat# P2996); purchased Panvera P2996
# T2 sequence (Q04759 whole entry): as above
# Test: PKCθ IMAP assay (fluorescence polarization)
# Assay type: biochemical
# Details: human PKCθ full length enzyme, IMAP; average value; read-out: IC50 PKCθ IMAP
row,IC50,Compound
1,230 nM,"CC(=O)Nc1ccc(-c2cccc(-c3cncc(C#N)c3Nc3ccc4[nH]ccc4c3)c2)cc1 [Compound 120, N-{3′-[5-cyano-4-(1H-indol-5-ylamino)pyridin-3-yl]biphenyl-4-yl}acetamide]"
2,240 nM,"N#Cc1cncc(-c2cccc(-c3ccccc3Cl)c2)c1Nc1ccc2[nH]ccc2c1 [Compound 129, 5-(2′-chlorobiphenyl-3-yl)-4-(1H-indol-5-ylamino)nicotinonitrile]"
3,160 nM,"N#Cc1cncc(-c2cccc(-c3cccc(Cl)c3)c2)c1Nc1ccc2[nH]ccc2c1 [Compound 130, 5-(3′-chlorobiphenyl-3-yl)-4-(1H-indol-5-ylamino)nicotinonitrile]"
4,120 nM,"N#Cc1cncc(-c2cccc(-c3ccc(Cl)cc3)c2)c1Nc1ccc2[nH]ccc2c1 [Compound 131, 5-(4′-chlorobiphenyl-3-yl)-4-(1H-indol-5-ylamino)nicotinonitrile]"
5,190 nM,"N#Cc1cncc(-c2cccc(-c3ncccn3)c2)c1Nc1ccc2[nH]ccc2c1 [Compound 138, 4-(1H-indol-5-ylamino)-5-(3-pyrimidin-2-ylphenyl)nicotinonitrile]"
6,320 nM,"COCCOc1cc(-c2cncc(C#N)c2Nc2ccc3[nH]ccc3c2)ccc1OC [Compound 154, 4-(1H-indol-5-ylamino)-5-[4-methoxy-3-(2-methoxyethoxy)phenyl]nicotinonitrile]"
7,16 nM,"COCCOc1ccc(-c2cncc(C#N)c2Nc2cccc3[nH]ccc23)cc1OC [Compound 159, 4-(1H-indol-4-ylamino)-5-[3-methoxy-4-(2-methoxyethoxy)phenyl]nicotinonitrile]"
